Active and inactive are the calls of the source.
Columns and labels:
[1] = biological target: Sphingosine 1-phosphate receptor 2 (Homo sapiens, UniProt O95136); assay: Late-stage fluorescence-based dose-response cell-based counterscreen assay to identify agonists of the Sphingosine 1-Phosphate Receptor 3 (S1P3): Sphingosine 1-Phosphate Receptor 2 (S1P2) agonist assay.; format: functional
[2] = biological target: Sphingosine 1-phosphate receptor 4 (Homo sapiens, UniProt O95977); assay: Late-stage fluorescence-based dose-response cell-based counterscreen assay to identify agonists of the Sphingosine 1-Phosphate Receptor 3 (S1P3): Sphingosine 1-Phosphate Receptor 4 (S1P4) agonist assay.; format: functional
[3] = biological target: 5-hydroxytryptamine receptor 5A (Homo sapiens, UniProt P47898); assay: Counterscreen for agonists of OPRM1-OPRD1 heterodimerization: luminescence-based cell-based high throughput dose response assay to identify agonists of 5-hydroxytryptamine (serotonin) 5A receptor (HTR5A). [Related pubchem assays (depositor defined):AID504326, AID504355, AID504692, AID504904, AID504905]; format: functional
5-hydroxytryptamine receptor 5A, sequence (P47898 whole entry): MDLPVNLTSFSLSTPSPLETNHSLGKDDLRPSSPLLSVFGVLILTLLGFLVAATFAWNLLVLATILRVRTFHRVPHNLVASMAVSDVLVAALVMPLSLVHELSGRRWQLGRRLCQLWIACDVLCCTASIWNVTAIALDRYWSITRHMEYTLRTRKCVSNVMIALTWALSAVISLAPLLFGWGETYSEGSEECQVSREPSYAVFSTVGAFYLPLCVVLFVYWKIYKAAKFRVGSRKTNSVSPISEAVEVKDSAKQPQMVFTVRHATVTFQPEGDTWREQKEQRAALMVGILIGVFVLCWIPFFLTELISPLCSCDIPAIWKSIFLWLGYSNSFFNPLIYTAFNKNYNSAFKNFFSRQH

[4] = biological target: T1, High affinity choline transporter 1 (Homo sapiens, UniProt Q9GZV3); assay: human choline transporter potentiators, potency – cell-based, 10-point CRC, membrane potential dye, dose response (AID 602376); format: functional
T1 sequence (Q9GZV3 whole entry): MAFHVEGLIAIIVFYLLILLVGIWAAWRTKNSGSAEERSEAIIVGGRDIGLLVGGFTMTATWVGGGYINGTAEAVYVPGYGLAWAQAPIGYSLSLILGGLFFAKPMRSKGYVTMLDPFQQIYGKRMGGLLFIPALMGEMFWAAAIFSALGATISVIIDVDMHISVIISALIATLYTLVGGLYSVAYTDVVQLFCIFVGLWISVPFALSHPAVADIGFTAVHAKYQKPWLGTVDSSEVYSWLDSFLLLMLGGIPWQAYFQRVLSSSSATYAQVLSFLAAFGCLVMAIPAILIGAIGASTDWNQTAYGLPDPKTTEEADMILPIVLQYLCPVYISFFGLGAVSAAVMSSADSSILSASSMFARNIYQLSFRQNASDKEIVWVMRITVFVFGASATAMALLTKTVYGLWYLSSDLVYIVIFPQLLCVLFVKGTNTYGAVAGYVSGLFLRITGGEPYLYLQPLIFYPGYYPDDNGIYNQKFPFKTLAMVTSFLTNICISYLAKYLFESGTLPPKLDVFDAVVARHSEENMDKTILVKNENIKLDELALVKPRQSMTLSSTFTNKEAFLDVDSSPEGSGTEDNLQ

Mu-type opioid receptor = Mu-type opioid receptor (Homo sapiens, UniProt P35372); assay: (§1) Counterscreen for agonists of heterodimerization of the mu 1 (OPRM1) and delta 1 (OPRD1) opioid receptors: Luminescence-based cell-based high throughput dose response assay to identify agonists of OPRM1 homodimerization.; format: functional
[5] = biological target: Delta-type opioid receptor (Homo sapiens, UniProt P41143); assay: as §1, with “of OPRD1” for “of OPRM1”, “homodimerization. [Related pubchem assays (depositor defined):AID504326, AID504355, AID504692, AID504904, AID504905]” for “homodimerization.”; format: functional
[6] = general mammalian cell viability loss – activator set, cherry-pick, cytotoxicity control for miR-122 modulator project, dose response (AID 720690); format: functional, cell-based;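 further: HEK293T human cells scored for general mammalian cytotoxicity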
[7] = biological target: Vascular endothelial growth factor receptor 3 (Homo sapiens, UniProt P35916); format: functional;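 further: value from a kinome-wide profiling panel, with FLT4 as the panel member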
[8] = biological target: Receptor-type tyrosine-protein kinase FLT3 (Homo sapiens, UniProt P36888); format: functional;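 further: FLT3 was tested as one member of a kinome-wide kinase panel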
[9] = biological target: Vascular endothelial growth factor receptor 1 (Homo sapiens, UniProt P17948); format: functional;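 further: measured within a kinome-wide profiling panel, FLT1 as the panel member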
[10] = biological target: Vascular endothelial growth factor receptor 2 (Homo sapiens, UniProt P35968); format: functional
[11] = biological target: Proto-oncogene tyrosine-protein kinase Src (Homo sapiens, UniProt P12931); format: functional;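 further: SRC entry within a kinome-wide kinase profiling panel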
[12] = biological target: Tyrosine-protein kinase Fyn (Homo sapiens, UniProt P06241); format: functional
[13] = biological target: Tyrosine-protein kinase Blk (Homo sapiens, UniProt P51451); format: functional;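 further: obtained as one member of a kinome-wide kinase assay panel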
Tyrosine-protein kinase Blk, sequence (P51451 whole entry): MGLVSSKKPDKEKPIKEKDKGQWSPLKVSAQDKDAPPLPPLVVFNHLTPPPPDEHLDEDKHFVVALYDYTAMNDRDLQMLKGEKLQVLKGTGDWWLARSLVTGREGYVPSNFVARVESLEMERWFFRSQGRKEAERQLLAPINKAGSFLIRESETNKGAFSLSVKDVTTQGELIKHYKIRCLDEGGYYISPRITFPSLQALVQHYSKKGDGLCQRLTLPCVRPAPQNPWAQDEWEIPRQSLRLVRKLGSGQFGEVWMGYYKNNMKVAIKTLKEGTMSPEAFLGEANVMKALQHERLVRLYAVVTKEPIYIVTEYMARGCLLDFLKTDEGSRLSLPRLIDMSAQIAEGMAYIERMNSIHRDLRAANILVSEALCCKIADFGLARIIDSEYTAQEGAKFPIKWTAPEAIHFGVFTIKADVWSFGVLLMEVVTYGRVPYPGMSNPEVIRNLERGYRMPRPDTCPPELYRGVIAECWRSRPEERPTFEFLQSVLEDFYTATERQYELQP

[14] = biological target: Macrophage colony-stimulating factor 1 receptor (Homo sapiens, UniProt P07333); format: functional;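 further: value comes from the Navigating the Kinome screening panel, CSF1R member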
[15] = biological target: Mast/stem cell growth factor receptor Kit (Homo sapiens, UniProt P10721); format: functional;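 further: KIT entry within a kinase panel assay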
Mast/stem cell growth factor receptor Kit, sequence (P10721 whole entry): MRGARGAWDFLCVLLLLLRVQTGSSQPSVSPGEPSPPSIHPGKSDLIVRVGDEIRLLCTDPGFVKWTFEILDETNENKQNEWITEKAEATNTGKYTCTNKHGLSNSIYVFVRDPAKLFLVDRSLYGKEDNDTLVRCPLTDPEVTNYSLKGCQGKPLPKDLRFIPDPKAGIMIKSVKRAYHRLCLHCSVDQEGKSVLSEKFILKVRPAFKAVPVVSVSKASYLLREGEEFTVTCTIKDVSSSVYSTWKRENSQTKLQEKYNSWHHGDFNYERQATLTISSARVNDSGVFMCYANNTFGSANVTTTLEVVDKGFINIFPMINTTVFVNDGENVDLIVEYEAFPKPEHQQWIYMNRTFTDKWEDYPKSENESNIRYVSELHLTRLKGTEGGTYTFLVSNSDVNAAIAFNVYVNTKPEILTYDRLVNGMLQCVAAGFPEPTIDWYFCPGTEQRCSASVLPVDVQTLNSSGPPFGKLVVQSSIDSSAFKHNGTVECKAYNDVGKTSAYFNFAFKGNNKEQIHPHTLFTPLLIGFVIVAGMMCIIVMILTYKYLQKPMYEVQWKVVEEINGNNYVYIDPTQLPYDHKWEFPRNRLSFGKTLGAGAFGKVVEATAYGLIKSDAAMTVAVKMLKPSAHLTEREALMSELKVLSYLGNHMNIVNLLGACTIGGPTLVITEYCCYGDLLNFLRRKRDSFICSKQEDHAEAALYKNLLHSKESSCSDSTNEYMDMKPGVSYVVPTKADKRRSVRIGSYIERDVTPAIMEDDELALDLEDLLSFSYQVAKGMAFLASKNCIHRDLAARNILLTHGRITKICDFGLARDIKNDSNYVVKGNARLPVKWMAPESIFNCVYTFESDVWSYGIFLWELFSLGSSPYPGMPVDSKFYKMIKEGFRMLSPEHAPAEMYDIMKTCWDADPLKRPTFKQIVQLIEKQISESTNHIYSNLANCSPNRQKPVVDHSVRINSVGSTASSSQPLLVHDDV

[16] = biological target: Tyrosine-protein kinase Lck (Homo sapiens, UniProt P06239); format: functional;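 further: lck was assayed as one member of a kinase panel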
Tyrosine-protein kinase Lck, sequence (P06239 whole entry): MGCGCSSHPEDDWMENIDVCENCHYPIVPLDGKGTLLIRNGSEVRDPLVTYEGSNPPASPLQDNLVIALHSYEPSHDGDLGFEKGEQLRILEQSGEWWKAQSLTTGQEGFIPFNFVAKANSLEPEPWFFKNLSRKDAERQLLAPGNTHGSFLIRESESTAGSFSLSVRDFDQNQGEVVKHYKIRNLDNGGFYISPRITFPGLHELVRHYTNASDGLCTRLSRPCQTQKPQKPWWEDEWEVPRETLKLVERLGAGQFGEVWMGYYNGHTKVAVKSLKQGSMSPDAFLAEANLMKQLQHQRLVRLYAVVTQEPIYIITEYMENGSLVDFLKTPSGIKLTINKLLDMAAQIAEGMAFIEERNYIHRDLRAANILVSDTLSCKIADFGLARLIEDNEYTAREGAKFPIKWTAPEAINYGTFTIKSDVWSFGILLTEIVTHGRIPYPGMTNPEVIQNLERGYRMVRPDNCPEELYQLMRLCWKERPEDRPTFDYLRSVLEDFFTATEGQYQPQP

[17] = biological target: Tyrosine-protein kinase ABL1 (Homo sapiens, UniProt P00519); format: functional
Tyrosine-protein kinase ABL1, sequence (P00519 whole entry): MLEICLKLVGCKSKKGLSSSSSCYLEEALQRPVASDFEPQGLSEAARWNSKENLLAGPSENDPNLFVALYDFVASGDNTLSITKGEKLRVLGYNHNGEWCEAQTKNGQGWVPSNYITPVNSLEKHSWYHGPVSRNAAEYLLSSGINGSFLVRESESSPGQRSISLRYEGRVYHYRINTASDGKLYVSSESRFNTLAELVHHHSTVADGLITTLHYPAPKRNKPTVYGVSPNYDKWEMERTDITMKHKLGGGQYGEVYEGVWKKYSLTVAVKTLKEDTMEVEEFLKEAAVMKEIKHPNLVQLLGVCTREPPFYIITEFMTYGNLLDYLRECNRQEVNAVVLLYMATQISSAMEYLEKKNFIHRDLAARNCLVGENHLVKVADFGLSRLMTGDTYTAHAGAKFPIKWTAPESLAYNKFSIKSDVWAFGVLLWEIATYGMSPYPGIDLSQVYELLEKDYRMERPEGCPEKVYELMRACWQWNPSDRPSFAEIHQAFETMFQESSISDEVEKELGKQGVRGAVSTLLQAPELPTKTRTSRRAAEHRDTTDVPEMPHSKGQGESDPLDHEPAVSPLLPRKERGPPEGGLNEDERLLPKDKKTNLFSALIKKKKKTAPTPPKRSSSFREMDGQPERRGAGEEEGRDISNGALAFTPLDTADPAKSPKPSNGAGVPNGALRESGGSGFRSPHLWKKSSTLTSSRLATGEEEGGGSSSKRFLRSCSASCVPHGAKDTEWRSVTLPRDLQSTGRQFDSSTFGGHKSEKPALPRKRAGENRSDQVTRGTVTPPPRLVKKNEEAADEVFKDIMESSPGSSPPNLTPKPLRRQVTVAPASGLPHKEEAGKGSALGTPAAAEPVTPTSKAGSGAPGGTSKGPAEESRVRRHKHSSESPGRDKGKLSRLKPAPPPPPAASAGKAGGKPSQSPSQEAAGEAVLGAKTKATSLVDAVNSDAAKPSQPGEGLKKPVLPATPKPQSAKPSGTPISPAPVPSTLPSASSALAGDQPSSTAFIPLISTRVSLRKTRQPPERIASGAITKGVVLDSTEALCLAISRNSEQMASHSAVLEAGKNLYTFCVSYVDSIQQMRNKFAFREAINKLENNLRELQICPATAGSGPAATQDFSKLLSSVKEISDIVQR

[18] = biological target: Tyrosine-protein kinase Lyn (Homo sapiens, UniProt P07948); format: functional;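 further: lyn as one member of a kinase panel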
Tyrosine-protein kinase Lyn, sequence (P07948 whole entry): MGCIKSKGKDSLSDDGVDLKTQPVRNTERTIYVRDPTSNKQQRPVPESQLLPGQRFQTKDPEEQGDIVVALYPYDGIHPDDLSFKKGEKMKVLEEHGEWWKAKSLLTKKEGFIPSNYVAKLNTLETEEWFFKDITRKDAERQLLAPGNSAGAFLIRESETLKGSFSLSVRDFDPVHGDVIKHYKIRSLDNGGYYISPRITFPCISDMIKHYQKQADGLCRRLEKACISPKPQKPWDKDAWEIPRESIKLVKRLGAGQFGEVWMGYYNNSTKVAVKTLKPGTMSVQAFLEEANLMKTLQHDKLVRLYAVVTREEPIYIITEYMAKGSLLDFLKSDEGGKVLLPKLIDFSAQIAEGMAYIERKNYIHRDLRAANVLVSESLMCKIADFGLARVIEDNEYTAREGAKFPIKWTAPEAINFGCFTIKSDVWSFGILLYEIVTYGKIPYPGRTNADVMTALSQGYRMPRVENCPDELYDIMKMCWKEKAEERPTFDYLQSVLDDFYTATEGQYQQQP

[19] = Vero cell cytotoxicity, cytotoxicity control for M. tuberculosis inhibitor project, purified and synthesized samples, set 3 (AID 504684); format: functional
[20] = THP-1 cell cytotoxicity, cytotoxicity control, set 4 (AID 504911); format: functional; conditions: Mycobacterium tuberculosis
[21] = THP-1 cell cytotoxicity, dose response, cytotoxicity control, set 3 (AID 504852); format: functional; conditions: Mycobacterium tuberculosis
[22] = Vero cell cytotoxicity, dose response, cytotoxicity control for M. tuberculosis growth inhibitor project, Vero cells, purified and synthesized compounds, set 4 (AID 504854); format: functional; conditions: Mycobacterium tuberculosis
[23] = biological target: Dual specificity tyrosine-phosphorylation-regulated kinase 1A (Rattus norvegicus, UniProt Q63470); format: biochemical, Homo sapiens
[24] = biological target: Protein disulfide-isomerase (Homo sapiens, UniProt P07237); assay: inhibition of PDI-driven insulin aggregation – biochemical, turbidity, absorbance, cherry-picked samples, dose response (AID 602350); format: functional
Protein disulfide-isomerase, sequence (P07237 whole entry): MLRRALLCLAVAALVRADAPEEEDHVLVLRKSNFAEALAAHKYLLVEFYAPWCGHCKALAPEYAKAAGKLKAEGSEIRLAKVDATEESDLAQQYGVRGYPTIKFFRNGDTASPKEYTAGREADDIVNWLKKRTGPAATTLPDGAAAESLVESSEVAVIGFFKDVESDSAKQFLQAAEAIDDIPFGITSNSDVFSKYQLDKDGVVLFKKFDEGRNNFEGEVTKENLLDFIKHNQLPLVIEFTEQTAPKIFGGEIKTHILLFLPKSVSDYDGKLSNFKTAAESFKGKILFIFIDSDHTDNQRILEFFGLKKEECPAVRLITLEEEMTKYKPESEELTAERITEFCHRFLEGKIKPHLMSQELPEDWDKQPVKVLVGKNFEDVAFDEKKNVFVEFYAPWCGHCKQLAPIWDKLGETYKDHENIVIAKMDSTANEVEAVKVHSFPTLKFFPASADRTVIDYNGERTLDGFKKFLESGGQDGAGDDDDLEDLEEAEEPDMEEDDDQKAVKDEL

Sphingosine 1-phosphate receptor 2, sequence (O95136 whole entry): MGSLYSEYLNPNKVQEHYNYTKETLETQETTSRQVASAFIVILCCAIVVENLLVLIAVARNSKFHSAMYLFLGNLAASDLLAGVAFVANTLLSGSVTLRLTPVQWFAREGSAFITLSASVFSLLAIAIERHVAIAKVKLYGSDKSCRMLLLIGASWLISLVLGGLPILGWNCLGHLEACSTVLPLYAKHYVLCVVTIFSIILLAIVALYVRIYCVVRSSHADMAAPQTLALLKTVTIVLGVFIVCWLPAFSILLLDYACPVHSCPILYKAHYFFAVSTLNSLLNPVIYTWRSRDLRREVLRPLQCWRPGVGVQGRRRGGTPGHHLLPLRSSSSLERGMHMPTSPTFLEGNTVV

With `CC1CCCCC1N(C(=O)c1cc(C2CC2)on1)C1CCCCC1C` (stereo not given) the EC50 [1] was > 50000 nM (inactive) and the EC50 [2] was > 50000 nM (inactive).

With `COc1ccc(CN2CCc3c([nH]c4ccccc34)C2)c(OC)c1C` the EC50 [3] was 47600 nM (inactive), the EC50 [4] was 8400 nM (active) and the EC50 (Mu-type opioid receptor) was > 30800 nM (inactive). For the same compound, the EC50 [5] was 74300 nM (inactive) and the AC50 [6] was 1680 nM (active).

With `Nc1n[nH]c2cccc(-c3ccc(NC(=O)Nc4cccc(C(F)(F)F)c4)c(F)c3)c12` the Ki [7] was 3.16 nM (active), the Ki [8] was 3.16 nM (active) and the Ki [9] was 0.316 nM (active). For the same compound, the Ki [10] was 0.794 nM (active), the Ki [11] was 158 nM (active) and the Ki [12] was 100 nM (active). The Ki [13] was 251 nM (active), the Ki [14] was 3.16 nM (active) and the Ki [15] was 2.51 nM (active). For the same compound, the Ki [16] was 200 nM (active), the Ki [17] was 316 nM (active) and the Ki [18] was 39.8 nM (active).

In the case of `O=C(CSc1nc(O)c2ccccc2n1)NCc1ccc(Cl)cc1`, the CC50 [19] is reported as > 100000 nM (active), the CC50 [20] is reported as > 100000 nM (active) and the CC50 [21] is reported as > 100000 nM (active). For the same compound, the CC50 [22] was > 100000 nM (active).

In the case of `COc1cc(-c2oc3cc(O)cc(O)c3c(=O)c2O[C@@H]2O[C@H](COC3O[C@@H](C)[C@H](O)[C@@H](O)[C@H]3O)[C@@H](O)[C@H](O)[C@H]2O)ccc1O` (stereo not given in full), the AC50 [23] is reported as 4620 nM (active) and the AC50 [24] is reported as 7960 nM (active).

Reference: ChEMBL document CHEMBL1201862, “PubChem BioAssay data set” (2004)
